According to patent US20240245079A1, “METHOD FOR MANUFACTURING HEATED FOOD” (Nisshin Seifun Welna Inc., priority 2021, published 2024):

Assay: Method for measuring solubility of metal salt
Details: 100 g water at pH 7, 20° C., shaken 1 hour
Protocol: In a flask are placed 100 g of water at pH 7 and 2 g of a metal salt being tested. The flask is tightly closed and shaken in a thermostat at 20° C. for 1 hour. The contents of the flask are filtered to collect the undissolved metal salt, which is dried and weighed. The weight (g) of the undissolved metal salt is subtracted from the original weight (2 g) to obtain the solubility of the metal salt.

[O]=[Mg] [Magnesium oxide]
Solubility: 0.0086 g/100 g water
